Assay results from PubChem BioAssay AID2060358 (Molecular Pharmacology Branch, DTP, NCI, 2025).
pIC50: −log10 of the molar value. Activity calls are given as the source filed them. Rule for the calls: active = viability on the fitted dose curve at most 10% of control; inactive = the rest.

System: 254851-301-R-J1-PDC spheroids, viability % test/control
Test: Anticancer human tumor 254851-301-R-J1-PDC patient-derived colon carcinoma cell line growth inhibition [TAK]
Settings: spheroids with HUVEC and MSC; for pIC50: curve of first compound; for viability, T/C: stronger effect = lower value
In short: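 Tumor cells were grown as spheroids with HUVEC and hMSC (60:25:15) and treated with targeted agents combined with TAK-243 or ipatasertib. Drugs were tested in half-log steps down from near the clinical Cmax, or from 10 microM where Cmax was unknown.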
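Throughout, for pIC50: spheroids exposed to drugs for seven days before viability readout.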
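Throughout, for viability, T/C: spheroids exposed to drugs for seven days before viability readout; 100% = DMSO vehicle control viability.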

With `CC(=O)Nc1cccc(-n2c(=O)n(C3CC3)c(=O)c3c(Nc4ccc(I)cc4F)n(C)c(=O)c(C)c32)c1` + CC(C)NCC(C(=O)N1CCN(c2ncnc3c2C(C)CC3O)CC1)c1ccc(Cl)cc1 the pIC50 (second compound 0.3 µM) was 7.75, the pIC50 (second compound 0.949 µM) was 7.75 and the pIC50 (second compound 3 µM) was 7.73. The pIC50 (second compound 9.49 µM) was 7.76, the pIC50 (second compound 30 µM) was 7.90 and the viability, T/C (second compound 0.3 µM, first compound 94.9 pM) was 115%. It also gave a viability, T/C (second compound 0.3 µM, first compound 0.0003 µM) of 109%, a viability, T/C (second compound 0.3 µM, first compound 0.000949 µM) of 108% and a viability, T/C (second compound 0.3 µM, first compound 0.003 µM) of 116%. It also gave a viability, T/C (second compound 0.3 µM, first compound 0.00949 µM) of 95.7%, a viability, T/C (second compound 0.3 µM, first compound 0.03 µM) of 11% and a viability, T/C (second compound 0.949 µM, first compound 94.9 pM) of 111%. The viability, T/C (second compound 0.949 µM, first compound 0.0003 µM) was 110%, the viability, T/C (second compound 0.949 µM, first compound 0.000949 µM) was 111% and the viability, T/C (second compound 0.949 µM, first compound 0.003 µM) was 102%. The viability, T/C (second compound 0.949 µM, first compound 0.00949 µM) was 88.5%, the viability, T/C (second compound 0.949 µM, first compound 0.03 µM) was 17.4% and the viability, T/C (second compound 3 µM, first compound 94.9 pM) was 106%. It also gave a viability, T/C (second compound 3 µM, first compound 0.0003 µM) of 107%, a viability, T/C (second compound 3 µM, first compound 0.000949 µM) of 110% and a viability, T/C (second compound 3 µM, first compound 0.003 µM) of 116%. The outcome (second compound 3 µM, first compound 0.00949 µM) was “inactive”, the viability, T/C (second compound 3 µM, first compound 0.03 µM) was 9.28% and the viability, T/C (second compound 9.49 µM, first compound 94.9 pM) was 94.7%. For the same compound, the viability, T/C (second compound 9.49 µM, first compound 0.0003 µM) was 114%, the viability, T/C (second compound 9.49 µM, first compound 0.000949 µM) was 106% and the viability, T/C (second compound 9.49 µM, first compound 0.003 µM) was 108%. For the same compound, the viability, T/C (second compound 9.49 µM, first compound 0.00949 µM) was 97.7%, the viability, T/C (second compound 9.49 µM, first compound 0.03 µM) was 6.45% and the viability, T/C (second compound 30 µM, first compound 94.9 pM) was 81.1%. The viability, T/C (second compound 30 µM, first compound 0.0003 µM) was 96.6%, the viability, T/C (second compound 30 µM, first compound 0.000949 µM) was 97.3% and the viability, T/C (second compound 30 µM, first compound 0.003 µM) was 81.4%. For the same compound, the viability, T/C (second compound 30 µM, first compound 0.00949 µM) was 65.3% and the viability, T/C (second compound 30 µM, first compound 0.03 µM) was 2.95%.
